This series in a line: Dissolution comparison of Nα-Nsc-amino acids and Nα-Fmoc-amino acids. In kind it is physicochemical. Also on record: key: ◯: dissolution; Δ: partial dissolution; X: no dissolution. The settings on record: Nsc-amino acid; for Dissolved state, Nsc, column B / Dissolved state, Nsc, column A: 100 mg in 1 ml dichloromethane; for Dissolved state, Nsc, column B / Dissolved state, Nsc, column D: heated at 40° C. for 5 minutes, then room temperature 5 minutes; for Dissolved state, Nsc, column A / Dissolved state, Nsc, column C: stirring 5 minutes; for Dissolved state, Nsc, column D / Dissolved state, Nsc, column C: 15% DMF/DCM. How it is done: Since only amino acids fully dissolved in a solvent can be used in acylation reactions, the following tests were performed to find solvent conditions in which amino acids can be completely dissolved.
100 mg of each of Nα-Nsc-amino acids and Nα-Fmoc-amino acids shown in Table 1, below, were precisely weighed and added to two containers added with 1 ml of dichloromethane (hereinafter, referred to as “DCM”), followed by stirring for 5 minutes. The dissolved states of amino acids were observed and are expressed in column A of the following Table 1.
Other amino acids, exclusive of totally dissolved amino acids, were heated in an oven at 40° C. for 5 minutes, and allowed to stand at room temperature for 5 minutes. Their dissolved states are shown in column B.
As such, the undissolved amino acids were dissolved in 15% dimethylformamide (hereinafter, referred to as “DMF”)/DCM in the same manner as in the case of the above column A, and their dissolved states are presented in column C.
Still undissolved amino acids were heated in an oven at 40° C. for 5 minutes, and allowed to stand at room temperature for 5 minutes. Their dissolved states were observed and are shown in column D.

In the case of `CC(C)CC(NC(=O)OCCS(=O)(=O)c1ccc([N+](=O)[O-])cc1)C(=O)O` (stereo not shown) [Nsc-Leu], the “Dissolved state, Nsc, column B” value is listed as “X”; the “Dissolved state, Nsc, column A” value is “X”; the “Dissolved state, Nsc, column D” value is given as “◯”; the “Dissolved state, Nsc, column C” value is on record as “Δ”.
For the compound `CC(C)(C)OC(=O)NCCCCC(NC(=O)OCCS(=O)(=O)c1ccc([N+](=O)[O-])cc1)C(=O)O` (stereo not shown) [Nsc-Lys], the “Dissolved state, Nsc, column B” value is listed as “◯”; the “Dissolved state, Nsc, column A” value was “◯”; the “Dissolved state, Nsc, column D” value was “◯”; the “Dissolved state, Nsc, column C” value is “◯”.
On to `CSCC[C@H](NC(=O)OCCS(=O)(=O)c1ccc([N+](=O)[O-])cc1)C(=O)O` [Nsc-Met], for which the “Dissolved state, Nsc, column B” value is “◯”; the “Dissolved state, Nsc, column A” value is “Δ”; the “Dissolved state, Nsc, column D” value is listed as “◯”; the “Dissolved state, Nsc, column C” value is recorded as “◯”.
Take `O=C(N[C@@H](Cc1ccccc1)C(=O)O)OCCS(=O)(=O)c1ccc([N+](=O)[O-])cc1` [Nsc-Phe]: the “Dissolved state, Nsc, column B” value was “X”; the “Dissolved state, Nsc, column A” value is “X”; the “Dissolved state, Nsc, column D” value is recorded as “◯”; the “Dissolved state, Nsc, column C” value was “◯”.
With `O=C(O)[C@@H]1CCCN1C(=O)OCCS(=O)(=O)c1ccc([N+](=O)[O-])cc1` [Nsc-Pro], the “Dissolved state, Nsc, column B” value is listed as “◯”; the “Dissolved state, Nsc, column A” value is “◯”; the “Dissolved state, Nsc, column D” value is “◯”; the “Dissolved state, Nsc, column C” value is “◯”.
Consider `CC(C)(C)OCC(NC(=O)OCCS(=O)(=O)c1ccc([N+](=O)[O-])cc1)C(=O)O` (stereo not shown) [Nsc-Ser], for which the “Dissolved state, Nsc, column B” value is “◯”; the “Dissolved state, Nsc, column A” value is recorded as “◯”; the “Dissolved state, Nsc, column D” value is recorded as “◯”; the “Dissolved state, Nsc, column C” value is recorded as “◯”.
As to `CC(OC(C)(C)C)C(NC(=O)OCCS(=O)(=O)c1ccc([N+](=O)[O-])cc1)C(=O)O` (stereo not shown) [Nsc-Thr], the “Dissolved state, Nsc, column B” value is reported as “◯”; the “Dissolved state, Nsc, column A” value was “◯”; the “Dissolved state, Nsc, column D” value was “◯”; the “Dissolved state, Nsc, column C” value was “◯”.
Consider `O=C(N[C@@H](Cc1c[nH]c2ccccc12)C(=O)O)OCCS(=O)(=O)c1ccc([N+](=O)[O-])cc1` [Nsc-Trp], for which the “Dissolved state, Nsc, column B” value is “X”; the “Dissolved state, Nsc, column A” value is “X”; the “Dissolved state, Nsc, column D” value is given as “◯”; the “Dissolved state, Nsc, column C” value is “Δ”.
Turning to `CC(C)(C)Oc1ccc(CC(NC(=O)OCCS(=O)(=O)c2ccc([N+](=O)[O-])cc2)C(=O)O)cc1` (stereo not shown) [Nsc-Tyr], the “Dissolved state, Nsc, column B” value is “◯”; the “Dissolved state, Nsc, column A” value is “◯”; the “Dissolved state, Nsc, column D” value is reported as “◯”; the “Dissolved state, Nsc, column C” value is recorded as “◯”.
Regarding `CC(C)C(NC(=O)OCCS(=O)(=O)c1ccc([N+](=O)[O-])cc1)C(=O)O` (stereo not shown) [Nsc-Val], the “Dissolved state, Nsc, column B” value is listed as “◯”; the “Dissolved state, Nsc, column A” value is recorded as “◯”; the “Dissolved state, Nsc, column D” value is “◯”; the “Dissolved state, Nsc, column C” value is “◯”.

The values above are taken from patent publication US20040192888A1, “Method of preparing peptide with high yield and high purity using2-(4-nitrophenylsulfonyl) ethoxycarbonyl-amino acids” (priority 2001, published 2004).
